Source: patent publication US10315998B2, “Amide compound and the preparation method and use thereof” (SHENYANG SINOCHEM AGROCHEMICALS R&D CO., LTD, priority 2015, dated 2019)

Assays:
Type in all cases: in vivo
[1] = system: cucumber downy mildew (Pseudoperonospora cubensis (Berk. et Curt.) Rostov); test: Protective effect against cucumber downy mildew on potted plants; details: grading 100-0 (100 no infection, 0 most serious infection), read-out: protectant activity against cucumber downy mildew
Protocol: (§1) Fungicidal activity of the compounds in the present invention against many kinds diseases were carried out. The procedure of fungicidal activity determination is as follows:
(§2) The fungicidal activity was tested in vivo manner on the potted plants. The test compounds of the present invention were dissolved in proper solvent (choosing the solvent according their dissolving ability to the compounds, the solvents could be acetone, methanol or N,N-dimethylformide, etc. The volume ratio between solvent and liquid sprayed was equal to or less than 0.05) and dilute with water contain 0.1% Tween 80 to given concentrations. Compounds of present invention was sprayed onto the leaves of seedling according to the designed concentration. Meanwhile, water was set as the blank control, three replicates were set for each treatment, the spore suspension were inoculated on the second day after treatment, then the plants were placed in an artificial climate chamber (temperature: day 25° C., night 20° C., relative humidity 95 to 100%). 24 hours later, the plants were moved to green house to cultivated. The plants which not need to control humidity was inoculated spore suspension in green house and cultivated in green house directly. The results were investigated after the plants were fully infected relative to the blank control (usually one week). The test resluts grading 100-0 refers to the <A Manual of Assessment Keys for Plant Diseases> which edited by American Phytopathological Society. “100” refer to no infection and “0” refer to the most serious infection
Protective effect against cucumber downy mildew (Pseudoperonospora cubensis (Berk. et Curt.) Rostov)
According the test method described above, parallel test were carried out between compounds 2, 4, 11, 13, 71 and 111 of present invention and the known compounds KC1, KC2, KC3, KC4, KC5 and KC6 (The compounds were self-made and the structure was confirmed by ^1H NMR consistent with the description of the procedures).

[2] = system: cucumber anthracnose (Colletotrichum orbiculare); test: Protective effect against cucumber anthracnose on potted plants; details: 400 ppm, foliar spray
Protocol: as §1
The fungicidal activity was tested in vivo manner on the potted plants. The test compounds of the present invention were dissolved in proper solvent (choosing the solvent according their dissolving ability to the compounds, the solvents could be acetone, methanol or N,N-dimethylformide, etc. The volume ratio between solvent and liquid sprayed was equal to or less than 0.05) and dilute with water contain 0.1% Tween 80 to given concentrations. Compounds of present invention was sprayed onto the leaves of seedling according to the designed concentration. Meanwhile, water was set as the blank control, three replicates were set for each treatment, the spore suspension were inoculated on the second day after treatment, then the plants were placed in an artificial climate chamber (temperature: day 25° C., night 20° C., relative humidity 95 to 100%). 24 hours later, the plants were moved to green house to cultivated. The plants which not need to control humidity was inoculated spore suspension in green house and cultivated in green house directly. The results were investigated after the plants were fully infected relative to the blank control (usually one week). […]

[3] = system: corn rust (Puccinia sorghi Schw.); test: Protective effect against corn rust on potted plants; details: grading 100-0
Protocol: as §1, §2
Protective Effect Against Corn Rust (Puccinia sorghi Schw.):
According the test method described above, parallel test were carried out between compound 13 of present invention and the known compound KC1.
According the test method described above, parallel test were carried out between compound 11 of present invention and the known compound KC2.
According the test method described above, parallel test were carried out between compound 71 of present invention and the known compounds KC5 and KC6.

Question: How did the pest or weed control at 400 ppm [1] turn out when `CCCCC(C)Oc1cccc(NC(=O)c2cn(C)nc2C(C)C)c1C` (stereo not shown) [Compound 2] was run?
Answer: 100%

Question: What does the source list for `CCCCC(C)Oc1cccc(NC(=O)c2c(C)nn(C)c2Cl)c1C` (stereo not shown) [Compound 4]?
Answer: pest or weed control at 400 ppm [1]: 100%; protective effect against cucumber anthracnose [2]: ≥ 80%

Question: How did the “protectant activity against corn rust” value ([3]; 0.39 ppm, table 4) turn out when `CCCCC(C)Oc1cccc(NC(=O)c2c(C(F)F)nn(C)c2Cl)c1C` (stereo not shown) [Compound 11] was run?
Answer: 100

Question: What about the “protectant activity against corn rust” value ([3]; 1.5625 ppm, table 4) of the same molecule?
Answer: 100

Question: And the “protectant activity against corn rust” value ([3]; 6.25 ppm, table 4)?
Answer: 100

Question: What about the pest or weed control at 400 ppm [1] of the same molecule?
Answer: 85%

Question: How did the “protectant activity against corn rust” value ([3]; 6.25 ppm, table 3) turn out when `CCCCC(C)Oc1cccc(NC(=O)c2cn(C)nc2C(F)(F)F)c1C` (stereo not shown) [Compound 13] was run?
Answer: 100

Question: What about the “protectant activity against corn rust” value ([3]; 400 ppm, table 3) of the same molecule?
Answer: 100

Question: And the pest or weed control at 400 ppm [1]?
Answer: 100%

Question: Which results are given for `CCCCC(C)Oc1cccc(NC(=O)c2sc(C)nc2C(F)(F)F)c1C` (stereo not shown) [Compound 71]?
Answer: protectant activity against corn rust ([3]; 1.56 ppm, table 5): 100; protectant activity against corn rust ([3]; 6.25 ppm, table 5): 100; protectant activity against corn rust ([3]; 400 ppm, table 5): 100; pest or weed control at 400 ppm [1]: 100%

Question: How did the pest or weed control at 400 ppm [1] turn out when `CCCC(C)Oc1cccc(NC(=O)c2sc(C(F)(F)F)nc2CC)c1C` (stereo not shown) [Compound 111] was run?
Answer: 100%

Question: Which results are given for `Cc1c(NC(=O)c2cn(C)nc2C(F)(F)F)cccc1OC(C)C` [KC1, reference compound]?
Answer: protectant activity against corn rust ([3]; 6.25 ppm, table 3): 50; protectant activity against corn rust ([3]; 400 ppm, table 3): 100; pest or weed control at 400 ppm [1]: 0%

Question: What does the source list for `Cc1c(NC(=O)c2c(C(F)(F)F)nn(C)c2Cl)cccc1OC(C)C` [KC2, reference compound]?
Answer: protectant activity against corn rust ([3]; 0.39 ppm, table 4): 0; protectant activity against corn rust ([3]; 1.5625 ppm, table 4): 65; protectant activity against corn rust ([3]; 6.25 ppm, table 4): 100; pest or weed control at 400 ppm [1]: 0%

Question: With `Cc1nn(C)cc1C(=O)Nc1cccc(OC(C)C)c1C` [KC3, reference compound] as the molecule, how does the pest or weed control at 400 ppm [1] read?
Answer: 0%

Question: How did the pest or weed control at 400 ppm [1] turn out when `Cc1nn(C)c(Cl)c1C(=O)Nc1cccc(OC(C)C)c1C` [KC4, reference compound] was run?
Answer: 0%

Question: `Cc1nc(C)c(C(=O)Nc2cccc(OC(C)C)c2)s1` [KC5, reference compound] was tested. Which pest or weed control at 400 ppm [1] did it give?
Answer: 0%
